Read-outs that look alike come from different tables or passages of the source.
How the values were obtained:
Format in all cases: biochemical
[1] = target: human RNMT (N7 guanosine RNA methyltransferase) (Homo sapiens, UniProt O43148); assay: RNMT activity inhibition (selectivity)
SETDB1 = SETDB1 (Homo sapiens, UniProt Q15047); assay: human MTase selectivity panel
[2] = target: T1, PRMT7 (protein arginine methyltransferase 7) (Homo sapiens, UniProt Q9NVM4); assay: human MTase selectivity panel and IC50
T1 sequence (Q9NVM4 1-692): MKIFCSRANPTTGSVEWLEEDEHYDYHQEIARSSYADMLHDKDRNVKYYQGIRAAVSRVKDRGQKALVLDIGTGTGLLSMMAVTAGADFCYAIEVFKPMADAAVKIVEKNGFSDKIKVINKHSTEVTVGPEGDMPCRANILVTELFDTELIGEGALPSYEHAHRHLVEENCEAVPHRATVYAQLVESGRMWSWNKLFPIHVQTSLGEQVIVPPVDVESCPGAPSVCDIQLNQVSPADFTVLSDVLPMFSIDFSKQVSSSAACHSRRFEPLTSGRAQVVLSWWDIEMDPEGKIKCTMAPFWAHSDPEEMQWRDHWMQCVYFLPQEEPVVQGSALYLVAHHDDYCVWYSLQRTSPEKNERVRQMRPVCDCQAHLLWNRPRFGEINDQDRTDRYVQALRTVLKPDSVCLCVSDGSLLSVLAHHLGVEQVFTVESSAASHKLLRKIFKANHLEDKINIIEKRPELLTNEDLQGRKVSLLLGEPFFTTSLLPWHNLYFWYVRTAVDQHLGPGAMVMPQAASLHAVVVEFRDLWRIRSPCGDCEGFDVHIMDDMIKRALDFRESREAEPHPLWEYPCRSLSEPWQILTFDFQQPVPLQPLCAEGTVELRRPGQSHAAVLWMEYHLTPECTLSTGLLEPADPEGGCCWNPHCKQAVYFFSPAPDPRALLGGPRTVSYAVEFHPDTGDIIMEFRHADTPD

PRMT1 = PRMT1 (Homo sapiens, UniProt Q99873); assay: human MTase selectivity panel
Chain of PRMT1 (Q99873 whole entry): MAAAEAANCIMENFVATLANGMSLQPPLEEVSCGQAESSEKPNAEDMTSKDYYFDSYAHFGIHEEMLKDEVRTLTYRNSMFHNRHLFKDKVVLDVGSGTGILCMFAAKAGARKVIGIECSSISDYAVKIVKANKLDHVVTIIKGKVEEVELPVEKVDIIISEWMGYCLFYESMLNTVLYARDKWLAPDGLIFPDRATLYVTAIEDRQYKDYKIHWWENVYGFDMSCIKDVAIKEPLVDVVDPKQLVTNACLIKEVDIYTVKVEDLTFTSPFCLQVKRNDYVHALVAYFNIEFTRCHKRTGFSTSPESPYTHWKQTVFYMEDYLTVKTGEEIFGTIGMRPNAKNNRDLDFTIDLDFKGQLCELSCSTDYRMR

G9a = target: T2, G9a (Homo sapiens, UniProt Q96KQ7); assay: human MTase selectivity panel
T2 sequence (Q96KQ7 1-1210): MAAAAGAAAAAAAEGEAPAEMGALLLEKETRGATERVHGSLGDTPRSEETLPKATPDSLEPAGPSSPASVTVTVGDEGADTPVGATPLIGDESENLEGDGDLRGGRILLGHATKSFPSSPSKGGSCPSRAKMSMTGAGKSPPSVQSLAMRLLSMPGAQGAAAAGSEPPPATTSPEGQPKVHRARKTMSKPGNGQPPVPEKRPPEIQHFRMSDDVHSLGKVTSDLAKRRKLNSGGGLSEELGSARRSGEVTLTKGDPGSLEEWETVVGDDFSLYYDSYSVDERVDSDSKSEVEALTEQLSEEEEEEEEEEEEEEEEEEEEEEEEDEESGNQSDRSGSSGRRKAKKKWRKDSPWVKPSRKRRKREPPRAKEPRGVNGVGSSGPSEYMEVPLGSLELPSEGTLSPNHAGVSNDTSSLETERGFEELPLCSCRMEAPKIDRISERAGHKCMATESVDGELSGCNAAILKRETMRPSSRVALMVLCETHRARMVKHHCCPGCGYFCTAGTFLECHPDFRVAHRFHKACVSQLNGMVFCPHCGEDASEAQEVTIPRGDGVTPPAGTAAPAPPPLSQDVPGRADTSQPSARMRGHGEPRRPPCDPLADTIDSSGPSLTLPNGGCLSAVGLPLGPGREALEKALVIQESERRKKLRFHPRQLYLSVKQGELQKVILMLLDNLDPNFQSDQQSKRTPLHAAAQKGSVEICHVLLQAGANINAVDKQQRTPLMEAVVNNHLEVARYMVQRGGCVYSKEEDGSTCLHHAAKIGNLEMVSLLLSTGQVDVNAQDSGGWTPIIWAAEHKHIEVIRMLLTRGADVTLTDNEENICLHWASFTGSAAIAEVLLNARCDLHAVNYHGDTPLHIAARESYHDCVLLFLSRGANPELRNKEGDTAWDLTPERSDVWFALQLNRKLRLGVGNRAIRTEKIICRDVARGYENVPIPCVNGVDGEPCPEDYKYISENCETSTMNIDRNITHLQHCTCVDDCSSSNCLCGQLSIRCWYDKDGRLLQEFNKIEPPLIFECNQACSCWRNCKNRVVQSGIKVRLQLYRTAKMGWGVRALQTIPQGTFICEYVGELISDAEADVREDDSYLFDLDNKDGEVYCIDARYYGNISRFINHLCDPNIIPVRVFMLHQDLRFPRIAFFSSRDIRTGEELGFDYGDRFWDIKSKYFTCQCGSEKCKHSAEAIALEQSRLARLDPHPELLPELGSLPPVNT

PRMT6 = PRMT6 (Homo sapiens, UniProt Q96LA8); assay: human MTase selectivity panel
Chain of PRMT6 (Q96LA8 whole entry): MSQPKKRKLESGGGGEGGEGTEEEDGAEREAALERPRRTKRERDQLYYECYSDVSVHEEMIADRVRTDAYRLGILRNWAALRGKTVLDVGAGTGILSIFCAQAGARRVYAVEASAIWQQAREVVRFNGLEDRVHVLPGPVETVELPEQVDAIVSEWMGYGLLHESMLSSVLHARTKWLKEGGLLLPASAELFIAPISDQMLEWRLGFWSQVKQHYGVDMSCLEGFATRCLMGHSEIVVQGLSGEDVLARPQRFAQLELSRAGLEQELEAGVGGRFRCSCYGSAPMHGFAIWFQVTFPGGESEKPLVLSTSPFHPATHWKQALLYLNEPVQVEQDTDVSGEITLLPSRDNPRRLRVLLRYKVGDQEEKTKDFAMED

[3] = average ± SD, read-out: Activity (%) at 10 µM Average
[4] = read-out: Activity (%) at 10 µM Replicate 1
[5] = read-out: Activity (%) at 10 µM Replicate 2
[6] = read-out: Activity (%) at 10 µM Replicate 3

Chain of human RNMT (N7 guanosine RNA methyltransferase) (O43148 whole entry): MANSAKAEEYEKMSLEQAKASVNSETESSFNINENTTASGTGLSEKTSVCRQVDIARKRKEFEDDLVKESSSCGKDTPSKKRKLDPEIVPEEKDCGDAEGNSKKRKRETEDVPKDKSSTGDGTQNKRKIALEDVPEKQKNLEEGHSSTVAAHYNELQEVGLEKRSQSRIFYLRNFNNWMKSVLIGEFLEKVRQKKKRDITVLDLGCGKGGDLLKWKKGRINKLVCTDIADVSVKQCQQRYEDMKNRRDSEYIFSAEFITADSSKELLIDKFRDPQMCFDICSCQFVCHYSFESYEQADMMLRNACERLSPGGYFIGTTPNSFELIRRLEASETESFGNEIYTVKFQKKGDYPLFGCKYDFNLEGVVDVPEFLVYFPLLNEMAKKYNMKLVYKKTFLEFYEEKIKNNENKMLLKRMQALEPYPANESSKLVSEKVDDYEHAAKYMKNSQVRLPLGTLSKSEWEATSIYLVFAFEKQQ

Question: What does the source list for `Nc1ncnc2c1ncn2[C@@H]1O[C@H](CSCc2ccc(Cl)cc2)[C@@H](O)[C@H]1O` [NSC620333]?
Answer: IC50 ([1]; RNMT): 8.6 ± 1.3 µM; Hill Slope ([1]; RNMT IC50 curve): -1.5; activity at 10 µM (SETDB1; [3]): 103 ± 3%; activity at 10 µM (SETDB1; [4]): 104%; activity at 10 µM (SETDB1; [5]): 106%; activity at 10 µM (SETDB1; [6]): 100%; IC50 ([2]; PRMT7): 7 ± 1.5 µM; activity at 10 µM ([2]; PRMT7, average ± SD, read-out: Activity (%) at 10 µM Average): 32 ± 3%; activity at 10 µM ([2]; PRMT7, read-out: Activity (%) at 10 µM Replicate 1): 35%; activity at 10 µM ([2]; PRMT7, read-out: Activity (%) at 10 µM Replicate 2): 29%; activity at 10 µM ([2]; PRMT7, read-out: Activity (%) at 10 µM Replicate 3): 32%; Hill Slope ([2]; PRMT7 IC50 curve): -1.9; activity at 10 µM (PRMT1; [3]): 91 ± 6%; activity at 10 µM (PRMT1; [4]): 97%; activity at 10 µM (PRMT1; [5]): 94%; activity at 10 µM (PRMT1; [6]): 84%; activity at 10 µM (G9a; [3]): 89 ± 9%; activity at 10 µM (G9a; [4]): 97%; activity at 10 µM (G9a; [5]): 79%; activity at 10 µM (G9a; [6]): 91%; activity at 10 µM (PRMT6; [3]): 100 ± 3%; activity at 10 µM (PRMT6; [4]): 97%; activity at 10 µM (PRMT6; [5]): 99%; activity at 10 µM (PRMT6; [6]): 103%

Source: publication doi:10.1101/2023.10.03.560722, “Drug Discovery in Low Data Regimes: Leveraging a Computational Pipeline for the Discovery of Novel SARS-CoV-2 Nsp14-MTase Inhibitors” (bioRxiv, 2024)
